The text below walks through data of US20250262201A1, “COMPOUNDS AND METHODS USEFUL FOR STABILIZING PHENYLALANINE HYDROXYLASE MUTATIONS” (Agios Pharmaceuticals, Inc., priority 2022, published 2025).

The structures appear in SMILES notation.

For this assay, the target named is T1, human PAH with the R408W mutation (Homo sapiens, UniProt P00439, R408W).
T1 construct: expressed in transfected cells
T1 sequence (P00439 1-452 R408W): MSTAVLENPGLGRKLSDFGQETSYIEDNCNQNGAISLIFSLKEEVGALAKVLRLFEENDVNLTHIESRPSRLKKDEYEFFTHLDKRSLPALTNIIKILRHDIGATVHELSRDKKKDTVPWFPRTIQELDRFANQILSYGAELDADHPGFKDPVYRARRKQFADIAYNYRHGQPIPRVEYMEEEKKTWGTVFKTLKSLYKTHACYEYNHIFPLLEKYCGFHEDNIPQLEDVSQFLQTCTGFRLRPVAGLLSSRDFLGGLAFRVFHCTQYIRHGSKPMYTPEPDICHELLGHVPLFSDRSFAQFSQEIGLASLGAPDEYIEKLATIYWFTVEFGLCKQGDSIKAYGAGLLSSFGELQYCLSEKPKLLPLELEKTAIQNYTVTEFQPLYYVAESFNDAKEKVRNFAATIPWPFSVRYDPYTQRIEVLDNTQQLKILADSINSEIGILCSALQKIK
Briefly: Cell Based Phenylalanine Flux Assay. Conditions: A375 cells expressing human R408W PAH; 24 hrs compound incubation; 13C-Tyrosine by LC-MS; average where tested multiple times; read-out: AC50.
As to `O=C(c1ocnc1C(F)F)N1CCc2nc[nH]c2C1c1ccc2ccccc2n1` (stereo in doubt) [Example 52, (S)-(4-(difluoromethyl)oxazol-5-yl)(4-(quinolin-2-yl)-6,7-dihydro-3H-imidazo[4,5-c]pyridin-5(4H)-yl)methanone], the AC50 – broadly, the concentration at which the activity in the assay is half-maximal – is 1000 to 5000 nM.
Regarding `O=C(CC1CC(F)C1)N1CCc2[nH]cnc2C1c1ccc2ccccc2n1` (stereo in doubt) [Example 53, (R)-2-(3-fluorocyclobutyl)-1-(4-(quinolin-2-yl)-6,7-dihydro-1H-imidazo[4,5-c]pyridin-5(4H)-yl)ethanone], the half-maximal activity concentration (AC50) is less than 500 nM.
Then `O=C(CC1CC(F)C1)N1CCc2[nH]cnc2C1c1ccc2ccccc2n1` (stereo in doubt) [Example 54, (S)-2-(3-fluorocyclobutyl)-1-(4-(quinolin-2-yl)-6,7-dihydro-1H-imidazo[4,5-c]pyridin-5(4H)-yl)ethanone], with 1000 to 5000 nM; and `O=C(N1CCc2[nH]cnc2C1c1ccc2ccccc2n1)C(F)(F)C1(O)CCC1` (stereo in doubt) [Example 55, (R)-2,2-difluoro-2-(1-hydroxycyclobutyl)-1-(4-(quinolin-2-yl)-6,7-dihydro-1H-imidazo[4,5-c]pyridin-5(4H)-yl)ethanone], with 500 to 1000 nM; and `O=C(N1CCc2[nH]cnc2C1c1ccc2ccccc2n1)C(F)(F)C1(O)CCC1` (stereo in doubt) [Example 56, (S)-2,2-difluoro-2-(1-hydroxycyclobutyl)-1-(4-(quinolin-2-yl)-6,7-dihydro-1H-imidazo[4,5-c]pyridin-5(4H)-yl)ethanone], with 1000 to 5000 nM.
For `N#Cc1ncoc1C(=O)N1CCc2[nH]cnc2C1c1ccc2ccccc2n1` (stereo in doubt) [Example 57, (R)-5-(4-(quinolin-2-yl)-4,5,6,7-tetrahydro-1H-imidazo[4,5-c]pyridine-5-carbonyl)oxazole-4-carbonitrile], the AC50 is less than 500 nM.
On to `N#Cc1ncoc1C(=O)N1CCc2[nH]cnc2C1c1ccc2ccccc2n1` (stereo in doubt) [Example 58, (S)-5-(4-(quinolin-2-yl)-4,5,6,7-tetrahydro-1H-imidazo[4,5-c]pyridine-5-carbonyl)oxazole-4-carbonitrile], for which the AC50 was 1000 to 5000 nM.
With `O=C(CC1(O)CCC1)N1CCc2[nH]cnc2C1c1ccc2ccccc2n1` (stereo in doubt) [Example 59, (R)-2-(1-hydroxycyclobutyl)-1-(4-(quinolin-2-yl)-6,7-dihydro-1H-imidazo[4,5-c]pyridin-5(4H)-yl)ethanone], the concentration at half-maximal activity (AC50) was less than 500 nM.
Turning to `O=C(CC1(O)CCC1)N1CCc2[nH]cnc2C1c1ccc2ccccc2n1` (stereo in doubt) [Example 60, (S)-2-(1-hydroxycyclobutyl)-1-(4-(quinolin-2-yl)-6,7-dihydro-1H-imidazo[4,5-c]pyridin-5(4H)-yl)ethanone], the concentration at half-maximal activity (AC50) is 1000 to 5000 nM.
For the compound `O=C(c1cnc(-c2ccccn2)o1)N1CCc2[nH]cnc2C1c1ccc2ccccc2n1` (stereo in doubt) [Example 61, (R)-(2-(pyridin-2-yl)oxazol-5-yl)(4-(quinolin-2-yl)-6,7-dihydro-1H-imidazo[4,5-c]pyridin-5(4H)-yl)methanone], the AC50 fell in the range of 500 to 1000 nM.
Regarding `O=C(c1cnc(-c2ccccn2)o1)N1CCc2[nH]cnc2C1c1ccc2ccccc2n1` (stereo in doubt) [Example 62, (S)-(2-(pyridin-2-yl)oxazol-5-yl)(4-(quinolin-2-yl)-6,7-dihydro-1H-imidazo[4,5-c]pyridin-5(4H)-yl)methanone], the AC50 is more than 5000 nM.
As to `O=C(c1nnc(-c2cnn(C(F)F)c2)o1)N1CCc2[nH]cnc2C1c1ccc2ccccc2n1` (stereo in doubt) [Example 63, (R)-(5-(1-(difluoromethyl)-1H-pyrazol-4-yl)-1,3,4-oxadiazol-2-yl)(4-(quinolin-2-yl)-6,7-dihydro-1H-imidazo[4,5-c]pyridin-5(4H)-yl)methanone], the AC50 is less than 500 nM.
